Patent US8415469B2, “Compounds and methods for kinase modulation, and indications therefor” (Plexxikon Inc., priority 2005, dated 2013)

Key:
Type in all cases: biochemical
MAPKAPK2 = biological target: T1, MAPKAPK2 (Homo sapiens, UniProt P49137); experiment: Z'-Lyte FRET kinase assay (Invitrogen), MAPKAPK2; settings: read-out: IC50, activity toward kinase MAPKAPK2
T1 construct: purchased Invitrogen (assay run by Invitrogen)
Source text: The effect of potential modulators of kinase activity can be measured in a variety of different assays known in the art. For example, direct radiometric, indirect FRET or AlphaScreen assays may be used to assess the level of phosphorylation of a substrate in the presence of test compounds in order to determine the inhibitory affect of the compound on the kinase. Invitrogen (Carlsbad, Calif.) uses a FRET based assay for Btk, EGFR, EphB2, Flt3, lrak4, Kdr, MAP2K1, MAPKAPK2, PDGFRB, PKC theta, Stk6 and Yes. For these assays, compounds of the invention were screened by Invitrogen using Z′-Lyte™ kinase assay.
Briefly, the Invitrogen kinase assay involves use of a specific peptide substrate optimized for each kinase, containing a fluorophore at each end that make up the FRET pair. The peptide sensitivity to proteolytic cleavage depends on phosphorylation of the peptide. Non-phosphorylated peptide is cleaved by a protease while peptide phosphorylated by the kinase is not cleaved. Cleavage of the peptide disrupts the FRET between the donor (coumarin) and acceptor (fluorescein) fluorophores, resulting in an increase in the ratio of donor emission to acceptor emission. The emission ratio of coumarin to fluorescein is used to assess the reaction progress. The extent of phosphorylation is determined from the emission ratio, which is low when the kinase is active (phosphorylated peptide is not cleaved, FRET pair connected) or higher for inhibited kinase (non-phosphorylated peptide is cleaved, FRET pair separated). Thus, the assay involves a kinase reaction in the presence of varying concentrations of a given compound, a development reaction with site specific protease, and detection of the fluorescent emission ratio of coumarin and fluorscein. […] Reaction conditions for each kinase are determined to provide optimal reaction times, incubation temperature, kinase and ATP concentrations. Test samples are made up in 1× kinase buffer (50 mM HEPES pH 7.5, 50 mM MgCl2, 5 mM EGTA, 0.05% BRIJ-35) and compound at desired concentration prepared in DMSO such that the final DMSO is 1%. […] Typically, assay plates are prepared to 10 μl final volume per sample, adding 2.5 μl of compound at 4× the desired concentration in 4% DMSO (serial dilution of compound provides concentration curve), 5 μl of the desired kinase mixed with Z′-LYTE™ peptide substrate (2× in 2× kinase buffer, final peptide at 2 μM), and 2.5 μl of 4×ATP solution. All kinase except for MAP2K1 were at 10 μM ATP in the kinase reaction, while MAP2K1 was at 100 μM. Samples are mixed and the kinase reaction is incubated 1 hour at room temperature, after which 5 μl of development solution is added and mixed. After incubation for another 1 hour at room temperature, 5 μl of stop reagent is added to each sample and mixed. The fluorescence signals are measured to determine the emission ratio.

Syk = Syk (Homo sapiens, UniProt P43405); experiment: AlphaScreen kinase assay, Syk; settings: read-out: IC50, activity toward kinase Syk
Source text: (§1) AlphaScreen assay was used to screen additional kinases. The assay is similarly dependent on the phosphorylation of a peptide substrate. In this assay, an antibody that recognizes phosphorylated substrate is bound to an acceptor bead. The peptide substrate is attached to biotin, which binds to a donor head that contains streptavidin. Thus phosphorylated substrate is bound by antibody and streptavidin, bringing the donor and acceptor heads into close proximity when kinase is not inhibited. The donor produces singlet oxygen which results in emission from the acceptor when they are in close proximity. Conversely, when kinase is inhibited, the donor and acceptor beads are not associated and the emission from the acceptor is reduced.
(§2) AlphaScreen assays were done using compounds dissolved in DMSO to a concentration of 20 mM. The compounds were diluted accordingly to the desired final concentrations in each sample well, using 1:3 serial dilution for a total of 8 concentration points.

PKC theta = biological target: T2, PKC theta (Homo sapiens, UniProt Q04759); experiment: Z'-Lyte FRET kinase assay (Invitrogen), PKC theta; settings: read-out: IC50, activity toward kinase PKC theta
T2 construct: purchased Invitrogen (Carlsbad, Calif.), screening service
Summary of the method: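 Serially diluted compound (final 1% DMSO) incubated 1 h at room temperature with kinase, 2 μM FRET peptide and 10 μM ATP in pH 7.5 HEPES buffer. Site-specific protease then cleaves unphosphorylated peptide (1 h); inhibition read as increased coumarin-to-fluorescein emission ratio.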

ROCK1 = ROCK1 (Homo sapiens, UniProt Q13464); experiment: AlphaScreen kinase assay, ROCK1; settings: read-out: IC50, activity toward kinase ROCK1
Sequence of ROCK1 (Q13464 whole entry): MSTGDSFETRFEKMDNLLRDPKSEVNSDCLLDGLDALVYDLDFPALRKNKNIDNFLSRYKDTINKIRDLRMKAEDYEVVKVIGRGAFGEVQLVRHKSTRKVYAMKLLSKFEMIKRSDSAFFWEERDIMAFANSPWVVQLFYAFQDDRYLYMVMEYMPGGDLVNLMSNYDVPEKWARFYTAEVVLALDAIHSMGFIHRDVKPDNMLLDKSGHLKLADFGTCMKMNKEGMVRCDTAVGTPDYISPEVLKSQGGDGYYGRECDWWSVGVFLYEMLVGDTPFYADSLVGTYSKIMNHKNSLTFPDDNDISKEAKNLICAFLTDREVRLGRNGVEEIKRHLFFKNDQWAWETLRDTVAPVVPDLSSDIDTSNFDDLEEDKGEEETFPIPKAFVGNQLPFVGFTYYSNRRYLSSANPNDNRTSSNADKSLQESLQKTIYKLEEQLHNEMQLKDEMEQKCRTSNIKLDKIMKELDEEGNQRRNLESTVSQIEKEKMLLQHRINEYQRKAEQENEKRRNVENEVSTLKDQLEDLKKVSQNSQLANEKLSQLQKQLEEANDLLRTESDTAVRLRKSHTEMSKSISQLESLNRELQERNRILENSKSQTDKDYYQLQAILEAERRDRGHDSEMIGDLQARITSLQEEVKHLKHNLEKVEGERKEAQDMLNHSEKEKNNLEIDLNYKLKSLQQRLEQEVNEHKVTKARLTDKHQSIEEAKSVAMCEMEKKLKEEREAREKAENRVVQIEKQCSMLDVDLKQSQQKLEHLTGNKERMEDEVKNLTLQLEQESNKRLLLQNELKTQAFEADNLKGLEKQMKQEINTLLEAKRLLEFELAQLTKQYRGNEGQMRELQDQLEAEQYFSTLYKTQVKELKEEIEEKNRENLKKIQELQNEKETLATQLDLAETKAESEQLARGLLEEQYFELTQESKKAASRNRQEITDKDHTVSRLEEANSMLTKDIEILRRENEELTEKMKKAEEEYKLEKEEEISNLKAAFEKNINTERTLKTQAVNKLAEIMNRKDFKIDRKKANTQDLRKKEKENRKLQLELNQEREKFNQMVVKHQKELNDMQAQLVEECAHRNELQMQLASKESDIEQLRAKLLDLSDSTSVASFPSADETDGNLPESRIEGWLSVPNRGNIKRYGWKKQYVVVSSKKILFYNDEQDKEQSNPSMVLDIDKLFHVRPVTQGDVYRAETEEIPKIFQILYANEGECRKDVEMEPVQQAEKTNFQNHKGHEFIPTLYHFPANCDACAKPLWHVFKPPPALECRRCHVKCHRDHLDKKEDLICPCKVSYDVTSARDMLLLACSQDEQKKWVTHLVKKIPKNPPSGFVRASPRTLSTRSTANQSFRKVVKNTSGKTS
Source text: as §1, §2

Kdr = biological target: T3, Kdr (Homo sapiens, UniProt P35968); experiment: Z'-Lyte FRET kinase assay (Invitrogen), Kdr; settings: read-out: IC50, activity toward kinase Kdr
T3 construct: purchased Invitrogen (assay run by Invitrogen)
T3 sequence (P35968 20-1356): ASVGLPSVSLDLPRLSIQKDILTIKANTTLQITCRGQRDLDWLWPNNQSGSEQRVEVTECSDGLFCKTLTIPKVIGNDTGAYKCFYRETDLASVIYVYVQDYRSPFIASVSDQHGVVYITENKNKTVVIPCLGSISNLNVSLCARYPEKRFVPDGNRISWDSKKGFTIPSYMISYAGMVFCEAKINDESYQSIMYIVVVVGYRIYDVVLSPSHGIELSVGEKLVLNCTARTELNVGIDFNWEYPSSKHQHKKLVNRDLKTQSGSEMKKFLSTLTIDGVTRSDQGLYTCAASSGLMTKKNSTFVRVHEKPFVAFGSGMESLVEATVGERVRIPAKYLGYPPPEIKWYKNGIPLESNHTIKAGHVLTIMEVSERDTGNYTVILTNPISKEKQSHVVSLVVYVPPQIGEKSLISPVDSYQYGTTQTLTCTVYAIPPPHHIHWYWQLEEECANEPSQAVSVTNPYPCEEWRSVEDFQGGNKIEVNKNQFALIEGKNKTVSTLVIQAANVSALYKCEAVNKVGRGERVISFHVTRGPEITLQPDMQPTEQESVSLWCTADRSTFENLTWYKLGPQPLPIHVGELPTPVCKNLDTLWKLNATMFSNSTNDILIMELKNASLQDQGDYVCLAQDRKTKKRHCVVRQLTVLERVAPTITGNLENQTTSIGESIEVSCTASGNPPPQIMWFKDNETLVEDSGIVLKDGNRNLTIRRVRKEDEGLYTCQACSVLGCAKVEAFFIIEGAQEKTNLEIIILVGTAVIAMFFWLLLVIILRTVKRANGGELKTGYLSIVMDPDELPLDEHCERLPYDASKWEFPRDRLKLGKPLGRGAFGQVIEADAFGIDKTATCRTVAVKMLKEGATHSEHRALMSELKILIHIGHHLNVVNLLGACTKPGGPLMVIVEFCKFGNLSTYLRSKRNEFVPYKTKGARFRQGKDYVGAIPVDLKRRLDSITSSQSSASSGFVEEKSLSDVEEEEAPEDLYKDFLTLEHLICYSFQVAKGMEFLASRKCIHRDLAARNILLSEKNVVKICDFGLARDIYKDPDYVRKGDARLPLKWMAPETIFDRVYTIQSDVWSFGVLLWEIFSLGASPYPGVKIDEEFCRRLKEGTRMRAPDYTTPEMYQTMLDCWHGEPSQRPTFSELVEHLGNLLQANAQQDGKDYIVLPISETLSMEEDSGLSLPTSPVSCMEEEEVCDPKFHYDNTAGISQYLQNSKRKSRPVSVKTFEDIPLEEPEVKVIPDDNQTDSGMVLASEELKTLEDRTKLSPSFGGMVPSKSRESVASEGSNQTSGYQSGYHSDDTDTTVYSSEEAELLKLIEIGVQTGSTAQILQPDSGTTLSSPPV

Akt3 = Akt3 (Homo sapiens, UniProt Q9Y243); experiment: AlphaScreen kinase assay, Akt3; settings: read-out: IC50, activity toward kinase Akt3
Summary of the method: (§3)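 AlphaScreen, biotin-peptide substrate; streptavidin donor/anti-phospho acceptor beads; decreased emission = inhibition. Cpds 20 mM DMSO stock, 1:3 x 8 conc.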

Stk6 = biological target: T4, Stk6 (Homo sapiens, UniProt O14965); experiment: Z'-Lyte FRET kinase assay (Invitrogen), Stk6; settings: read-out: IC50, activity toward kinase Stk6
T4 construct: purchased Invitrogen (Carlsbad, Calif.), screening service
T4 sequence (O14965 1-403): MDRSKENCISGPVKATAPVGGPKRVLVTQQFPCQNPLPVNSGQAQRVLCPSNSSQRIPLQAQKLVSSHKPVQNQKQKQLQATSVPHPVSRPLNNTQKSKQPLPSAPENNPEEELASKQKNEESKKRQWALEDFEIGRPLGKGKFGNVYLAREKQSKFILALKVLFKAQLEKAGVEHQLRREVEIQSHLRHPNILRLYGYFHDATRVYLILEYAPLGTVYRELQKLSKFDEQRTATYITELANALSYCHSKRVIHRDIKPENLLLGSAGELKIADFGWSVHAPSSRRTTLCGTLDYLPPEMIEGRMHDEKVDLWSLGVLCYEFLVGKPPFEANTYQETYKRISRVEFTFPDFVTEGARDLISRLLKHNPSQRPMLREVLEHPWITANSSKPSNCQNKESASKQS

IKK beta = biological target: T5, IKK beta (Homo sapiens, UniProt O14920); experiment: AlphaScreen kinase assay, IKK beta; settings: read-out: IC50, activity toward kinase IKK beta
T5 sequence (O14920 1-756): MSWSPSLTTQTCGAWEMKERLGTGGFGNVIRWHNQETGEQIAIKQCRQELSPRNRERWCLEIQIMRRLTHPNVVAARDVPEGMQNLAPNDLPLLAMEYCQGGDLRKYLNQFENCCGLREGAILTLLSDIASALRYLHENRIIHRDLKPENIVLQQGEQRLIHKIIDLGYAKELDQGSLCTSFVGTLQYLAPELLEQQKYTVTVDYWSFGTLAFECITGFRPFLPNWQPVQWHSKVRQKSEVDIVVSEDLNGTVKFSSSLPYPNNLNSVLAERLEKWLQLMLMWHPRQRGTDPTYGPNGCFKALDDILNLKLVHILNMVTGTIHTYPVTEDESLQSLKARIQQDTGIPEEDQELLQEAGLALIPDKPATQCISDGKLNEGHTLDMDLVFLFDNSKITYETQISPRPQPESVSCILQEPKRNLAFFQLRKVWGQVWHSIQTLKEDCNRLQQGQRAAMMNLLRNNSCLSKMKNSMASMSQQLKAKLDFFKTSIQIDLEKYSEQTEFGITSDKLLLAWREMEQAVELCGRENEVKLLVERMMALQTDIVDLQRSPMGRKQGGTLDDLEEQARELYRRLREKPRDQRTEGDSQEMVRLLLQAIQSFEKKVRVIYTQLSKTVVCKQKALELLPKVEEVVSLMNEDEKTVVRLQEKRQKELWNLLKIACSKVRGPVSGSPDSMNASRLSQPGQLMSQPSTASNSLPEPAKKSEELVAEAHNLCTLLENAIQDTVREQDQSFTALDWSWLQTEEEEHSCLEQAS

MAP2K1 = biological target: T6, MAP2K1 (Homo sapiens, UniProt Q02750); experiment: Z'-Lyte FRET kinase assay (Invitrogen), MAP2K1; settings: read-out: IC50, activity toward kinase MAP2K1
T6 construct: purchased Invitrogen (assay run by Invitrogen)
T6 sequence (Q02750 whole entry): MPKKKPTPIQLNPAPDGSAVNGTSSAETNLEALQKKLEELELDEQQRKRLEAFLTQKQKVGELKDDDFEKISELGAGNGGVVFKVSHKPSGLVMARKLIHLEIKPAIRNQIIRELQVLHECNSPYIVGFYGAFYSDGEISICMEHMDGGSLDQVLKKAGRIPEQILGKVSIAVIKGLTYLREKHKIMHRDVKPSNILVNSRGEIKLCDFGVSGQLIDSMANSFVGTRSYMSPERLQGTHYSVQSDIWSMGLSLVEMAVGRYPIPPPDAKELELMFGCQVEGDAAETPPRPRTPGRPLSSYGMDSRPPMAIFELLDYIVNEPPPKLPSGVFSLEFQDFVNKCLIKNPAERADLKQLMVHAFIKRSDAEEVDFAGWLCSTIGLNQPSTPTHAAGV

Gsk3β = Gsk3β (Homo sapiens, UniProt P49841); experiment: AlphaScreen kinase assay, Gsk3β; settings: read-out: IC50, activity toward kinase Gsk3β
Summary of the method: as §3

MAP4K4 = MAP4K4 (Homo sapiens, UniProt O95819); experiment: AlphaScreen kinase assay, MAP4K4; settings: read-out: IC50, activity toward kinase MAP4K4
Sequence of MAP4K4 (O95819 whole entry): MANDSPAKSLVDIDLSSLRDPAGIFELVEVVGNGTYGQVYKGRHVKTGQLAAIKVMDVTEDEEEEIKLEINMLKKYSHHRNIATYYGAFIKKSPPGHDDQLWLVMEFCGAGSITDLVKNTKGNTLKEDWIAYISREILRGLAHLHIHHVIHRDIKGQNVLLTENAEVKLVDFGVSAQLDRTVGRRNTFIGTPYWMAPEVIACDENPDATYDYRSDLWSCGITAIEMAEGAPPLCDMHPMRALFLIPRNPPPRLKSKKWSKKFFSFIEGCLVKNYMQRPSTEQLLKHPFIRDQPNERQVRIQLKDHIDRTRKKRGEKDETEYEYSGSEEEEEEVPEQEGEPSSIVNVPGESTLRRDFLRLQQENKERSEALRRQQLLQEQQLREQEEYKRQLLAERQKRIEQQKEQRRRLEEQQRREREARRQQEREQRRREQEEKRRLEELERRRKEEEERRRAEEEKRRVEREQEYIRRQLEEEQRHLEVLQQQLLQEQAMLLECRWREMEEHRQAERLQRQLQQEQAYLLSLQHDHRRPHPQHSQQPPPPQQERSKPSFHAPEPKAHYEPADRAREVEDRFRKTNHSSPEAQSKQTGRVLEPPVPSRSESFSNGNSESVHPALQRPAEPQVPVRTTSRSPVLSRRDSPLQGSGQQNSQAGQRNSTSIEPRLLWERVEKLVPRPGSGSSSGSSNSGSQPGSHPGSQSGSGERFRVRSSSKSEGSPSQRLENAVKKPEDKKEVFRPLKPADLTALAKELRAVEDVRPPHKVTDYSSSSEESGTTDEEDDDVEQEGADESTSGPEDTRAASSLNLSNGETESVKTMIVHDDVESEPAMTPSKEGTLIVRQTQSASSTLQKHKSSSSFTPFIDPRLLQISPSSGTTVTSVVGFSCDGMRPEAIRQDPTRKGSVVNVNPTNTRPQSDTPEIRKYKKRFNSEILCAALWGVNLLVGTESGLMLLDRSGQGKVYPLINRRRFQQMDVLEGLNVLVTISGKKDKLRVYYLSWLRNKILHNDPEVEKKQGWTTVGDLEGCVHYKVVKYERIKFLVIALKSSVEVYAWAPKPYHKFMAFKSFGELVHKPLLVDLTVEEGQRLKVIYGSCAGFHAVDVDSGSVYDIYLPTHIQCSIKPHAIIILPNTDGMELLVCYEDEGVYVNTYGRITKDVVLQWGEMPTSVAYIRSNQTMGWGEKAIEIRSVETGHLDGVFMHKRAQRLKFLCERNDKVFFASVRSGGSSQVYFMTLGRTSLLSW

Measured: IC50

T1 sequence (P49137 whole entry): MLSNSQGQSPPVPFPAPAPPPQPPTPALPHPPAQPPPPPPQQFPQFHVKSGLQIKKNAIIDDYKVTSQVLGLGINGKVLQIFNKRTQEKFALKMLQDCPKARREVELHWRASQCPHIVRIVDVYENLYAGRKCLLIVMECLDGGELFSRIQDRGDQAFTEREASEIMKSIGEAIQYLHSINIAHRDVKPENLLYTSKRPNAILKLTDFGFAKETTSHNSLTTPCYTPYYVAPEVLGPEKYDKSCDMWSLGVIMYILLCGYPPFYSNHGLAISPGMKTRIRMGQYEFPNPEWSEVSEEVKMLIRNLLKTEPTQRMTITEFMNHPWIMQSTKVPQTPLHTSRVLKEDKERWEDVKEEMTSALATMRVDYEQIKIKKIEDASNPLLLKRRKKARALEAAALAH

OCc1cccc(-c2ccnc3[nH]cc(Sc4ccccn4)c23)c1 [Compound P-0057]
≤ 10 µM: all assays above
